Results taken from patent publication US9630958B2, “Triazine compounds” (Sphaera Pharma Pte. Ltd., priority 2012, dated 2017).

How the values were obtained:
[1] = biological target: T1, PI3 Kinase alpha (p110 alpha/p85 alpha) (Homo sapiens, UniProt P42336); test: PI3K TR-FRET assay (Transcreener ADP2); format: biochemical; conditions: for IC50: PI3K alpha, 1 μM ATP, 50 μM PIP2; for inhibition at 1 µM: 1 uM compound, read-out: PI3K % Inhib@1 uM
T1 construct: purchased Invitrogen
Procedure: Enzymatic activity of PI3K alpha was measured using Time resolved Fluorescence resonance energy transfer (TR-FRET) assay. This assay utilizes ADP detection as a means to screen inhibitor potency of compounds. The Transcreener ADP2 TR-FRET Red Assay is a competitive immunoassay for ADP with a far-red, TR-FRET readout and it has been used for this purpose. The assay can be used for any enzyme class that produces ADP (Kinases, ATPases). It consists of ADP HiLyte647 Tracer, ADP^2 Antibody-Tb conjugate (800 nM), stop & detect buffer, 5 mM ATP, 5 mM ADP. The ADP HiLyte647 Tracer is bound to an ADP^2 Antibody-Tb conjugate. The excitation of the terbium complex in the UV range results in energy transfer to the tracer and emission at a higher wavelength after a time delay ADP produced by the target enzyme displaces the tracer which causes decrease in TR-FRET.
The reaction buffer used for the assay was 50 mM HEPES, pH 7.4.3 mM MgCl2, 0.05% CHAPS, 50 mM NaCl, 2 mM DTT, 1 mM EGTA. PI3 Kinase alpha (p110 alpha/p85 alpha) and PIP2 Substrate (diC8,) were procured from Invitrogen and Echelon respectively.
Kinase reactions were performed in 10 μl volume in Corning white 384 well plates. […] Reaction was initiated by the addition of substrate (PIP2) and ATP at final conc. of 50 μM and 1 μM ATP in the reaction respectively. Kinase reactions were allowed to proceed for 1 hour at room temperature before a 10 μL preparation of Transcreener ADP detection mix was added. Plate was incubated at room temperature for 1 hr. ADP-ATP standard curves were also prepared.
(§1) FRET signal was read in Envision Multilabel Reader with the following filters:
Excitation-330 nm and Emission 615 nm (donor) and 665 nm (acceptor). TR FRET Ratio (Fluorescence 665 nm/Fluorescence 615 nm) was converted to amount of product formed using the standard curve generated. Percentage inhibition was calculated and plotted against the concentration of inhibitor and data was fit to Non Linear Regression curve fit (sigmoidal dose response curve with variable slope-four parameters) using Graph pad prism 5 and IC50 was calculated for the compound.

Recombinant mTOR (FRAP1) = biological target: T2, Recombinant mTOR (FRAP1) (Homo sapiens, UniProt P42345); test: mTOR in vitro kinase assay (TR-FRET, phosphorylation of GFP-4E-BP1); format: biochemical; conditions: for inhibition at 1 µM: 1 uM compound, read-out: mTOR % Inhib@1 uM; for IC50: 8 μM ATP, 400 nM GFP-4E-BP1
T2 construct: purchased Invitrogen
T2 sequence (P42345 1360-2549 limits assumed): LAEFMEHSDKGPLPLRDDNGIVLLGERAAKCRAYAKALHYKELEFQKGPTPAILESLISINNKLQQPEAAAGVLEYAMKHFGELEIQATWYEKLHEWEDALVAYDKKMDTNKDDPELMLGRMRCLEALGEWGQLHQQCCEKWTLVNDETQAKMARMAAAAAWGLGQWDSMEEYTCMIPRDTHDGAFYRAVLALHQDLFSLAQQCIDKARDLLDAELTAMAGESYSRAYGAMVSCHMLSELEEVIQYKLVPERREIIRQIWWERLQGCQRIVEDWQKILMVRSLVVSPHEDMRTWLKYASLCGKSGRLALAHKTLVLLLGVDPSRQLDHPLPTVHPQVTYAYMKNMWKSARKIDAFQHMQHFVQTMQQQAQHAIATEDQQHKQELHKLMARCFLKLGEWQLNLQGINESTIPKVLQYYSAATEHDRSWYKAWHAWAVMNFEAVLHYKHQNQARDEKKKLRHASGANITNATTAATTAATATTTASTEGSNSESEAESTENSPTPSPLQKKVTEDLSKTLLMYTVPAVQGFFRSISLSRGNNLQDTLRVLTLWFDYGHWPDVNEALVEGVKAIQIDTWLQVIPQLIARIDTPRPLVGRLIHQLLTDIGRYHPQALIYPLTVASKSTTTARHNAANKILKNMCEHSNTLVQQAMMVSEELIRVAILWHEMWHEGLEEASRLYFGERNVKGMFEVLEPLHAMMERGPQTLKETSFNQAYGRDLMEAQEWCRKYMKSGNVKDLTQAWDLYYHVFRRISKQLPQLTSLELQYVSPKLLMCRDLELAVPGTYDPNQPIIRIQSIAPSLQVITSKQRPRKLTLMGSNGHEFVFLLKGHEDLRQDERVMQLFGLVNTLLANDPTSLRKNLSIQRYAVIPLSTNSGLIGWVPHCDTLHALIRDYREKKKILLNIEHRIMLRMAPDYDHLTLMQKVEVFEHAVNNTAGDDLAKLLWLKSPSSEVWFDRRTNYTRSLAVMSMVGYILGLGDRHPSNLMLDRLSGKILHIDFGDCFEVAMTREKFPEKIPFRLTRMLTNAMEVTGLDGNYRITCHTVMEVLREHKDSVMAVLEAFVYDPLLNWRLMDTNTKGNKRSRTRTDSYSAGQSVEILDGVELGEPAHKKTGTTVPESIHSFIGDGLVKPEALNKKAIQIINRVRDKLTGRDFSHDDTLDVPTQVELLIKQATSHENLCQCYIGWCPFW
Procedure: Compounds were evaluated for mTOR activity using an in vitro kinase assay.
mTOR activity is measured in vitro by determining the level of phosphorylation of the protein substrate 4EBP-1. The phosphorylation of GFP-4E-BP1 at threonine residue is recognized by Ab Tb-Anti-p4EBP1, which results in time resolved fluorescence energy transfer (TR-FRET) between GFP and Terbium in the Ab-Protein complex.
Recombinant mTOR (FRAP1), Kinase reaction buffer, GFP-4E-BP1 and LanthaScreen Tb-anti-4E-BP1 (pThr46), TR FRET dilution buffer, Kinase Quench Buffer were obtained from Invitrogen.
Kinase reactions were performed in 10 μl volume in Corning white 384 well plates. […] The reaction was initiated by the addition of substrate (GFP-4E-BP1) and ATP at a final conc. of 400 nM and 8 μM ATP in the reaction respectively. The kinase reaction was allowed to proceed for 1 hour at room temperature before a 10 μL preparation of kinase quench buffer and Tb-labeled Antibody in TR-FRET dilution buffer was added. The final concentration of the antibody in the assay well is 2 nM and the final concentration of EDTA is 10 mM. The plate was incubated at room temperature for 1 h.
as §1
Excitation-330 nm and Emission 486 nm (donor) and 520 nm (acceptor).
TR FRET Ratio (Fluorescence 520 nm/Fluorescence 486 nm) was plotted against the concentration of inhibitor and data was fit to Non Linear Regression curve fit (sigmoidal dose response curve with variable slope-four parameters) using Graph Pad Prism 5.

T1 sequence (P42336 whole entry): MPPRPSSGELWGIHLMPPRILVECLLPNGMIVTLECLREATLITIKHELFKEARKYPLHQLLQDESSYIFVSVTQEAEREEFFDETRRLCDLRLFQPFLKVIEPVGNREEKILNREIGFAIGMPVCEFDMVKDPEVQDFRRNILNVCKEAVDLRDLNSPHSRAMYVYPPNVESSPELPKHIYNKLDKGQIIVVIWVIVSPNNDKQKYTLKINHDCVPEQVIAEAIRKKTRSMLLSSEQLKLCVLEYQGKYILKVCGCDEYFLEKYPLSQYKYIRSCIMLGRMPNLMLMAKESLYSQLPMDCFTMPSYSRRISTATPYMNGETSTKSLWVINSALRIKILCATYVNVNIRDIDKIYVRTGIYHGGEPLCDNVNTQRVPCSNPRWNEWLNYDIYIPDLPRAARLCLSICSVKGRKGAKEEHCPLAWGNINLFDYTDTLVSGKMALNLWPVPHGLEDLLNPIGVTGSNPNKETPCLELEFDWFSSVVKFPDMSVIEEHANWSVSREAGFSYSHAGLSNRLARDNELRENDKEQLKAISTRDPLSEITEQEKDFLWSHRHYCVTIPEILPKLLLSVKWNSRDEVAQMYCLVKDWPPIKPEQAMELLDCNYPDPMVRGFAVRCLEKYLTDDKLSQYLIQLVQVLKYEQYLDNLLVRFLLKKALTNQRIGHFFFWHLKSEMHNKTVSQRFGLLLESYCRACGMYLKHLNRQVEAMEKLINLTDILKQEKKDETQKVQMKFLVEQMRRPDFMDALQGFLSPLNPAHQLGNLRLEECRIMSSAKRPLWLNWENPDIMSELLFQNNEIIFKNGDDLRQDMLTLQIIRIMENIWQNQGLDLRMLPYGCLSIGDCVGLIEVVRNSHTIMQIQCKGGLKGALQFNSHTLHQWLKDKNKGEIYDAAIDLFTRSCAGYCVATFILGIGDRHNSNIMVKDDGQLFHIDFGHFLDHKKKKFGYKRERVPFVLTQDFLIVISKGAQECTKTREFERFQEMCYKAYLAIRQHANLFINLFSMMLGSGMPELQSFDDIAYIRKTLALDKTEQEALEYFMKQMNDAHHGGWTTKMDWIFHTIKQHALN
T1 sequence (P27986 whole entry partner): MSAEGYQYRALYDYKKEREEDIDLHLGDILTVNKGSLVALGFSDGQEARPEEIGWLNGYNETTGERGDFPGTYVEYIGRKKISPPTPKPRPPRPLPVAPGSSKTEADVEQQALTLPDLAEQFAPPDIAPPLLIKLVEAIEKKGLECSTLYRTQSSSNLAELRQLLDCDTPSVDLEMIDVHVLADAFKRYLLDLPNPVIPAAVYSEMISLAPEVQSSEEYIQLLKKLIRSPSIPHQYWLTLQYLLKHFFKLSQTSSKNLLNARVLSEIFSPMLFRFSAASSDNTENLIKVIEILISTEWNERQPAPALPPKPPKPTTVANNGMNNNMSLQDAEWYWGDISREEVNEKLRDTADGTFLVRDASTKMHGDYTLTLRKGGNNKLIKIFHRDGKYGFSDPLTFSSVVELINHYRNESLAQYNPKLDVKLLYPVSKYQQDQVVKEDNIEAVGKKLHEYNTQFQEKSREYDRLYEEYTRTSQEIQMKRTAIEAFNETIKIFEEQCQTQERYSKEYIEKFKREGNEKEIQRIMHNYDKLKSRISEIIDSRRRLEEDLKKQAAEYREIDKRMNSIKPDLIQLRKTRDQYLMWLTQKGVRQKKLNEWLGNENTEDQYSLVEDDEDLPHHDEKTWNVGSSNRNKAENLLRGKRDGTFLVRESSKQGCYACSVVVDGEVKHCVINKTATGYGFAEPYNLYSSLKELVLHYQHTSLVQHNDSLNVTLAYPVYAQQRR

| Compound | IC50 [1] | inhibition at 1 µM (Recombinant mTOR (FRAP1)) | IC50 (Recombinant mTOR (FRAP1)) | inhibition at 1 µM [1] |
| --- | --- | --- | --- | --- |
| CN(C)C(=O)N1CCC(Oc2nc(-c3cnc(N)s3)nc(N3CCOCC3)n2)CC1 [Compound 10003, 4-(4-(2-aminothiazol-5-yl)-6-morpholino-1,3,5-triazin-2-yloxy)-N,N-dimethylpiperidine-1-carboxamide] | < 1000 nM | > 50% | < 1000 nM | – |
| C[C@@H]1COCCN1c1nc(Oc2ccc(C(=O)N(C)C)cc2)nc(-c2cnc(N)s2)n1 [Compound 10004, (R)-4-(4-(2-aminothiazol-5-yl)-6-(3-methylmorpholino)-1,3,5-triazin-2-yloxy)-N,N-dimethylbenzamide] | > 1000 nM | < 50% | < 1000 nM | – |
| C[C@H]1COCCN1c1nc(Oc2ccc(C(=O)N(C)C)cc2)nc(-c2cnc(N)s2)n1 [Compound 10005, (S)-4-(4-(2-aminothiazol-5-yl)-6-(3-methylmorpholino)-1,3,5-triazin-2-yloxy)-N,N-dimethylbenzamide] | < 1000 nM | > 50% | < 1000 nM | – |
| CC1COCCN1c1nc(Oc2ccc(C(=O)N(C)C)cc2)nc(-c2cnc(N)s2)n1 (stereo not drawn) [Compound 10006, 4-(4-(2-aminothiazol-5-yl)-6-(3-methylmorpholino)-1,3,5-triazin-2-yloxy)-N,N-dimethylbenzamide] | > 1000 nM | < 50% | – | > 50% |
| CNc1ncc(-c2nc(Oc3ccc(C(=O)N(C)C)cc3)nc(N3CCOCC3)n2)s1 [Compound 10007, N,N-dimethyl-4-(4-(2-(methylamino)thiazol-5-yl)-6-morpholino-1,3,5-triazin-2-yloxy)benzamide] | > 1000 nM | > 50% | < 1000 nM | – |
| C[C@H]1COCCN1c1nc(Oc2ccc(C(=O)N(C)C)cc2F)nc(-c2cnc(N)s2)n1 [Compound 10010, (S)-4-(4-(2-aminothiazol-5-yl)-6-(3-methylmorpholino)-1,3,5-triazin-2-yloxy)-3-fluoro-N,N-dimethylbenzamide] | < 1000 nM | > 50% | < 1000 nM | > 50% |
| CN(C)C(=O)c1ccc(Oc2nc(-c3cnc(N)s3)nc(N3[C@@H]4CC[C@H]3COC4)n2)cc1 [Compound 10011, 4-(4-(2-aminothiazol-5-yl)-6-((1R,5S)-3-oxa-8-azabicyclo[3.2.1]octan-8-yl)-1,3,5-triazin-2-yloxy)-N,N-dimethylbenzamide] | > 1000 nM | > 50% | < 1000 nM | – |
| CN(C)C(=O)c1ccc(Oc2nc(-c3cnc(N)cc3C(F)(F)F)nc(N3CCOCC3)n2)cc1 [Compound 10015, 4-(4-(6-amino-4-(trifluoromethyl)pyridin-3-yl)-6-morpholino-1,3,5-triazin-2-yloxy)-N,N-dimethylbenzamide] | < 1000 nM | > 50% | < 1000 nM | – |
| CN(C)C(=O)c1ccc(Oc2nc(-c3cnc(N)s3)nc(N3CCOCC3)n2)cc1 [Compound 10017, 4-(4-(2-aminothiazol-5-yl)-6-morpholino-1,3,5-triazin-2-yloxy)-N,N-dimethylbenzamide] | < 1000 nM | – | < 1000 nM | – |
| C[C@@H]1CN(c2nc(Oc3ccc(C(=O)N(C)C)cc3F)nc(-c3cnc(N)s3)n2)C[C@@H](C)O1 [Compound 10070, 4-((4-2-Aminothiazol-5-yl)-6-((2R,6R)-2,6-dimethylmorpholino)-1,3,5-triazin-2-yl)oxy-3-fluoro-N,N-dimethylbenzamide] | – | – | < 1000 nM | – |
| CN(C)C(=O)c1ccc(Oc2nc(-c3cnc(N)s3)nc(N3CCOCC34CCCC4)n2)c(F)c1 [Compound 10083, 4-((4-(2-Aminothiazol-5-yl)-6-(9-oxa-6-azaspiro[4.5]decan-6-yl)-1,3,5-triazin-2-yl)oxy)-3-fluoro-N,N-dimethylbenzamide] | < 1000 nM | – | – | – |
| C[C@H]1CN(c2nc(Oc3ccc(C(=O)N(C)C)cc3F)nc(-c3cnc(N)s3)n2)C[C@H](C)O1 [Compound 10084, 4-((4-2-Aminothiazol-5-yl)-6-((2S,6S)-2,6-dimethylmorpholino)-1,3,5-triazin-2-yl)oxy-3-fluoro-N,N-dimethylbenzamide] | – | – | < 1000 nM | – |
| C[C@H]1CN(c2nc(Oc3ccc(C(=O)N(C)C)cc3F)nc(-c3cnc(N)s3)n2)[C@@H](C)[C@@H](C)O1 [Compound 10088, 4-((4-(2-Aminothiazol-5-yl)-6-((2R,3S,6S)-2,3,6-trimethylmorpholino)-1,3,5-triazin-2-yl)-oxy)-3-fluoro-N,N-dimethylbenzamide] | – | < 50% | – | – |
| C[C@H]1COCCN1c1nc(Oc2ccc(C(=O)N(C)C)cc2)nc(-c2cnc(NC(=O)c3cccnc3)s2)n1 [Compound 10094, (S)-N-(5-(4-(4-(dimethylcarbamoyl)phenoxy)-6-(3-methylmorpholino)-1,3,5-triazin-2-yl)thiazol-2-yl)nicotinamide] | – | – | – | < 50% |
| Nc1ccc(-c2nc(SCc3ccccc3)nc(N3CCOCC3)n2)cn1 [Compound 10175, 5-(4-(benzylthio)-6-morpholino-1,3,5-triazin-2-yl)pyridine-2-amine] | < 1000 nM | – | – | – |
| CN(C)C(=O)c1ccc(Oc2nc(-c3ccc(NN)nc3)nc(N3CCOCC3)n2)cc1 [Compound 10177, 4-((4-(6-hydrazinylpyridin-3-yl)-6-morpholino-1,3,5-triazin-2-yl)oxy)-N,N-dimethylbenzamide] | < 1000 nM | – | – | – |
| CN(C)C(=O)c1cccc(Oc2nc(-c3ccc(N)nc3)nc(N3CCOCC3)n2)c1 [Compound 10183, 3-((4-(6-aminopyridin-3-yl)-6-morpholino-1,3,5-triazin-2-yl)oxy)-N,N-dimethylbenzamide] | < 1000 nM | – | – | – |
| CN(C)C(=O)Cc1cccc(Oc2nc(-c3ccc(N)nc3)nc(N3CCOCC3)n2)c1 [Compound 10184, 2-(3-((4-(6-aminopyridin-3-yl)-6-morpholino-1,3,5-triazin-2-yl)oxy)phenyl)-N,N-dimethylacetamide] | < 1000 nM | – | – | – |
| CN(C)C(=O)N1CCC(Oc2nc(-c3ccc(N)nc3)nc(N3CCOCC3)n2)C1 (stereo not drawn) [Compound 10186, 3-((4-(6-aminopyridin-3-yl)-6-morpholino-1,3,5-triazin-2-yl)oxy)-N,N-dimethylpyrrolidine-1-carboxamide] | < 1000 nM | – | – | – |
| CN(C)C(=O)N1CCC(COc2nc(-c3ccc(N)nc3)nc(N3CCOCC3)n2)C1 (stereo not drawn) [Compound 10187, 3-(((4-(6-aminopyridin-3-yl)-6-morpholino-1,3,5-triazin-2-yl)oxy)methyl)-N,N-dimethylpyrrolidine-1-carboxamide] | < 1000 nM | – | – | – |
| Nc1ncc(-c2nc(N3CCOCC3)nc(N3CCNC(=O)CC3)n2)s1 [Compound 10198, 1-(4-(2-aminothiazol-5-yl)-6-morpholino-1,3,5-triazin-2-yl)-1,4-diazepan-5-one] | < 1000 nM | – | – | – |
| C[C@@H]1CN(c2nc(Oc3ccc(C(=O)N(C)C)cc3F)nc(-c3cnc(N)s3)n2)[C@H](C)CO1 [Compound 10205, 4-((4-(2-aminothiazol-5-yl)-6-((2R,5R)-2,5-dimethylmorpholino)-1,3,5-triazin-2-yl)oxy)-3-fluoro-N,N-dimethylbenzamide] | – | – | < 1000 nM | – |
| CN(C)C(=O)c1ccc(Oc2nc(-c3cnc(N)s3)nc(N3CCO[C@@H]4CCC[C@@H]43)n2)c(F)c1 [Compound 10206] | – | – | < 1000 nM | – |
| CC1COCCN1c1nc(Oc2ccc(C(=O)N(C)C)cc2F)nc(-c2ccc(N)nc2)n1 (stereo not drawn) [Compound 10207, 4-((4-(6-aminopyridin-3-yl)-6-(3-methylmorpholino)-1,3,5-triazin-2-yl)oxy)-3-fluoro-N,N-dimethylbenzamide] | – | – | < 1000 nM | – |
